The results in this text go back to US5098613A, “Anti-inflammatory agents” (Eli Lilly and Company, priority 1990, dated 1992).

Where a name gives a salt, the structure may show the parent alone. Read-outs that look alike come from different tables or passages of the source.

This test has as its target T1, leukotriene B4 specific receptor on the membrane of human neutrophils (Homo sapiens, UniProt Q15722).
T1 construct: incubating neutrophils (1×10^7 cells) with 0.1-0.2 nM ^3 H-LTB4; endogenous in cells; host or cells: human peripheral blood neutrophils (buffy coats of two blood donors)
Briefly: Inhibition of Binding of ^3 H-LTB4 to Peripheral Human Neutrophils. The settings on record: for inhibition at 10 µM: read-out: LTB4 Binding Inhibition; for inhibition at 1 µM: drug concentration 10^-6 M; for inhibition at 0.1 µM: drug concentration 10^-7 M. The method, then: The effectiveness of compounds to inhibit the binding of leukotriene B4 to a specific receptor on the membrane of human neutrophils was measured by using an adaptation of a radio-ligand binding assay developed by Goldman and Goetzl, J. Immunol., 129, 1600 (1982). Other investigators have developed similar assays (see, e.g., Kreisle, et al., J. Exp. Med., 157, 628 (1983) and Lin, et al., Prostaglandins, 28, 837 (1984)).
Cells used in the assay were isolated by standard techniques of centrifugation on Ficol-Hypaque, dextran 70 sedimentation and hypotonic lysis. The following procedure was used. Freshly-prepared buffy coat layers from two individuals were obtained from a local blood donor center. The cells were mixed and diluted to 484 ml. with phosphate buffered saline containing heparin (10 units/ml) and heat-inactivated calf serum (5%). This was divided into 20 ml. aliquots and the aliquots layered on top of Ficoll-Paque (12 ml.). The material was then centrifuged at 500 g. for 40 minutes at room temperature. The resulting upper layer of platelets and mononuclear cells was discarded. The lower layer containing erythrocytes and neutrophils was retained. Buffer was added (1 ml. per 4 ml. of lower layer) and the suspension mixed. For each milliliter of this mixture, 0.33 ml. of 6% Macrodex was added. After stirring, the cels were allowed to sediment for 1 hour at 37° C. The resulting erythrocyte pellet was discarded and the neutrophil enriched supernatant fluid centrifuged at 500 g. for 10 minutes at 4° C. Erythrocytes still present in this cell pellet were lysed by incubating the cells with 5-8 ml. ice-cold distilled water for 30-45 seconds. Subsequently, the volume was made up to 50 ml. by addition of ice-cold buffer and the cells resuspended. The suspension was then centrifuged at 300 g. for 10 minutes at 4° C. The cells were finally resuspended at a cell density of 2×10^7 cells/ml in the assay buffer. This buffer Consisted of Hanks' balanced salt solution and 0.1% ovalbumin (pH 7.3).
The radio-ligand binding assay was conducted by incubating neutrophils (1×10^7 cells) with 0.1-0.2 nM ^3 H-LTB4 (sp. act. 150-220 Curies/mmol) and test compound (1×10^-5 M and 1×10^-6 M) for 10 minutes at 4° C. The amount of bound ^3 H-LTB4 was then measured and compared with the amount bound in the absence of test compound. The assay was carried out in microcentrifuge tubes by adding first 10 μl test compound dissolved in DMSO, followed by adding 20 μl ^3 H-LTB4 diluted in assay buffer, and finally adding 500 μl of the cell suspension pension. At the end of the 10 minutes incubation, 300 μl of a mixture of dibutyl and dinonyl phthalate (7:2) were added and the tubes centrifuged for 2 minutes in a microcentrifuge. The radioactivity bound to the cell pellet was measured by scintillation spectroscopy. Appropriate corrections for nonspecific bonding of ^3 H-LTB4 were made.

Where [1] appears, read: drug concentration 10^-5 M, 4° C., 10 minutes.

T1 sequence (Q15722 whole entry): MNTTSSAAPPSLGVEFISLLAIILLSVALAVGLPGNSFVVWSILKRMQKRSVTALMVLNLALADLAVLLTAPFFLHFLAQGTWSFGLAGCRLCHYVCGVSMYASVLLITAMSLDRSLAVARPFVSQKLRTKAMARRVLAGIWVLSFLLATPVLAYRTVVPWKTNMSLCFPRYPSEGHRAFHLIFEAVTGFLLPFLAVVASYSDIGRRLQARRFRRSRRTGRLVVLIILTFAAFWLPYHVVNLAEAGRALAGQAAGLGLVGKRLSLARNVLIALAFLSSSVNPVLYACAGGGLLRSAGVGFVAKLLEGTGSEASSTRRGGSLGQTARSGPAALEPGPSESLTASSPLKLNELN

Usually inhibition stands for the change of the read-out against control, counted positive when it falls. Consider `CCOC(=O)c1ccc(COc2cc(O)c(C(C)=O)cc2CC)cc1O` [Example 147, 4-[(4-Acetyl-2-ethyl-5-hydroxyphenoxy)methyl]-2-hydroxybenzoic acid, ethyl ester], for which, under setting [1], the inhibition at 10 µM stood at 2%. In addition, for the setting “4° C., 10 minutes”, the inhibition at 1 µM amounted to 3%.
Consider `C=CCc1cc(C(C)=O)c(O)cc1OCCCCCC(=O)OC` [Example 94, 6-(4-Acetyl-5-hydroxy-2-allylphenoxy)hexanoic acid, methyl ester], for which the inhibition at 10 µM under setting [1] amounted to 106%. Also, the inhibition at 1 µM (4° C., 10 minutes) worked out at 64%.
With `CCCc1cc(C(C)=O)c(O)cc1OCCCCC#N` [Example 118, 5-(4-Acetyl-5-hydroxy-2-propylphenoxy)-pentanenitrile], under setting [1], the inhibition at 10 µM came to 83%. Besides, the inhibition at 1 µM (4° C., 10 minutes) is 38%.
For the compound `CCc1cc(C(C)=O)c(O)cc1OCCCCCC(C)(C)C(N)=O` [Example 101, 7-(4-Acetyl-2-ethyl-5-hydroxyphenoxy)-2,2-methylheptanamide], the inhibition at 10 µM under setting [1] amounted to 101%. In addition, for the setting “4° C., 10 minutes”, the inhibition at 1 µM stood at 82% and the inhibition at 0.1 µM amounted to 45%.
Regarding `C=CCc1cc(C(C)=O)c(O)cc1OCCCC` [Example 40, 4-Butoxy-2-hydroxy-5-allylacetophenone], the inhibition at 10 µM under setting [1] was found to be 31%. The inhibition at 1 µM (4° C., 10 minutes) worked out at 8%.
For `C=CCc1cc(C(C)=O)c(O)cc1OCCCCN1CCOCC1` [Example 75, 2-Hydroxy-4-[4-(4-morpholino)butoxy]-5-allylacetophenone hydrochloride], in that order: 0% and 0%.
In the case of `C=CCc1cc(C(=O)CCCC(=O)O)c(O)cc1OCCCCC#N` [Example 106, 5-[4-(4-Cyanobutoxy)-2-hydroxy-5-allylphenyl)-5-oxopentanoic acid], under setting [1], the inhibition at 10 µM came out at 9%. The inhibition at 1 µM (4° C., 10 minutes) came out at 1%.
For `CCc1cc(C(=O)c2ccc(C(=O)O)cc2)c(O)cc1OCCCCC#N` [Example 91, 4[4-(4-Cyanobutoxy)-5-ethyl-2-hydroxybenzoyl]benzoic acid], in that order: 26% and 20%.
In the same order, the values of `C=CCc1cc(C(C)=O)c(O)cc1OCCCC#N` [Example 26, 4-(4-Acetyl-5-hydroxy-2-allylphenoxy)-butanenitrile] are 46% and 5%.
In the case of `CCc1cc(C(C)=O)c(O)cc1OCCCCCn1cncn1` [Example 146], under setting [1], the inhibition at 10 µM was 81%. Moreover, the inhibition at 1 µM (4° C., 10 minutes) worked out at 29%.
For `CCc1cc(C(C)=O)c(O)cc1OCCCC(C)(C)C#N` [Example 133, 5-(4-Acetyl-2ethyl-5-hydroxyphenoxy)-2,2-dimethylpentanitrile], under setting [1], the inhibition at 10 µM amounted to 89%. For the same compound, the inhibition at 1 µM (4° C., 10 minutes) is 48%.
In the same order, the values of `C=CCc1cc(C(C)=O)c(O)cc1OCCCCO` [Example 44, 4-(4-Hydroxybutoxy)-5-allyl-2-huydroxy-aoetophenone] are 47% and 9%.
For `C=CCc1cc(C(C)=O)c(O)cc1OCCCCCC(N)=O` [Example 96, 6-(4-Acetyl-5-hydroxy-2-allylphenoxy)hexanamide], the inhibition at 10 µM under setting [1] is 87%. Also, the inhibition at 1 µM (4° C., 10 minutes) amounted to 37%.
In the same order, the values of `C=CCc1cc(C(C)=O)c(O)cc1OCc1cccc(CC#N)c1` [Example 60, 3-[(4-Acetyl-5-hydroxy-2-allylphenoxy)-methyl]benzeneacetonitrile] are 12% and 6%.
For `C=CCc1cc(C(C)=O)c(O)cc1OCC#N` [Example 25, (4-Acetyl-5-hydroxy-2-allylphenoxy)-acetonitrile], in that order: 19% and 2%.
For the compound `C=CCc1cc(C(C)=O)c(O)cc1OCCCCCCS(C)(=O)=O` [Example 80, 2-hydroxy-4-[6-(methylsulfonyl)-hexyloxy]-5-allylacetophenone], the inhibition at 10 µM was 100%. The inhibition at 1 µM (4° C., 10 minutes) was 62%.
On to `C=CCc1cc(C(C)=O)c(O)cc1OCCCCCCCC#N` [Example 69, 8-(4-Acetyl-5-hydroxy-2-allylphenoxy)octanenitrile], for which, under setting [1], the inhibition at 10 µM amounted to 88%. Also, the inhibition at 1 µM (4° C., 10 minutes) came out at 51%.
In the same order, the values of `C#CCCCCOc1cc(O)c(C(C)=O)cc1CC=C` [Example 57, 4-(5-Hexynyloxy)-2-hydroxy-5-allylaceto-phenone] are 73% and 29%.
In the same order, the values of `CCCc1cc(C(C)=O)c(O)cc1OCCCCN` [Example 74, 4-(4-Aminobutoxy)-2-hydroxy-5-propylacetophenone hydrochloride] are 0% and 0%.
For `CCc1cc(C(C)=O)c(O)cc1OCc1cccc(C(=O)O)c1` [Example 84], in that order: 81% and 28%.
For `CCCCCCc1cc(C(C)=O)c(O)cc1OCCCCC#N` [Example 29, 5-(4-Acetyl-2-hexyl-5-hydroxyphenoxy)-pentanenitrile], under setting [1], the inhibition at 10 µM is 51%. Moreover, where the note is “4° C., 10 minutes”, the inhibition at 1 µM came out at 12%.
In the same order, the values of `CCc1cc(C(C)=O)c(O)cc1OCCCCc1nnn(CC(=O)O)n1` [Example 143, 5-[4-(4-Acetyl-2ethyl-5-hydroxyphenoxy)-butyl]-2H-tetrazole-2-acetic acid] are 69% and 27%.
For `CC(=O)c1cc(C)c(OCCCCC#N)cc1O` [Example 28, 5-(4-Acetyl-2-methyl-5-hydroxyphenoxy)-pentanenitrile], under setting [1], the inhibition at 10 µM amounted to 77%. Further, for the setting “4° C., 10 minutes”, the inhibition at 1 µM is 32%.
For `CCc1cc(C(C)=O)c(O)cc1OCCCCc1nnnn1CC(=O)O` [Example 144, 5-[4-(4-Acetyl-2-ethyl-5-hydroxyphenoxy)-butyl]-1H-tetrazole-1-acetic acid], in that order: 63% and 20%.
For `C=CCc1cc(C(C)=O)c(O)cc1OCCCCC` [Example 41, 4-Pentyloxy-2-hydroxy-5-allylaceto-phenone], under setting [1], the inhibition at 10 µM is 59%. The inhibition at 1 µM (4° C., 10 minutes) worked out at 22%.
In the same order, the values of `C=CCc1cc(C(C)=O)c(O)cc1OCCCCCC(C)(C)O` [Example 103, 2-Hydroxy-4-(6-hydroxy-6-methylheptyloxy)-5-allylacetophenone] are 97% and 59%.
For `CCc1cc(C(C)=O)c(O)cc1OCCCCCNC(C)=O` [Example 138, N-[5-(4-Acetyl-2-ethyl-5-hydroxyphenoxy)-pentyl]acetamide], the inhibition at 10 µM under setting [1] was determined as 98%. Besides, under “4° C., 10 minutes”, the inhibition at 1 µM is 58%.
In the same order, the values of `CCc1cc(C(C)=O)c(O)cc1OCCCCCCSC` [Example 81, 2-Hydroxy-4-[6-(methylthio)hexyloxy]-5-ethylacetophenone] are 71 to 94% and 14 to 59%.
Take `CCc1cc(C(C)=O)c(O)cc1OCCCCCC(C)(C)C(=O)N(C)O` [Example 149, 7-(4-Acetyl-2-ethyl-5-hydroxyphenoxy)-N-hydorxy-N,2,2-trimethylheptanamide]: the inhibition at 10 µM under setting [1] amounted to 97%. Moreover, under “4° C., 10 minutes”, the inhibition at 1 µM was 65% and the inhibition at 0.1 µM turned out to be 6%.
Take `CCCc1cc(C(C)=O)c(O)cc1OCCCCNC(C)=O` [Example 77, N-[4-(4-Acetyl-5-hydroxy-2-propylphenoxy)-butyl]acetamide]: the inhibition at 10 µM under setting [1] was 71%. Besides, the inhibition at 1 µM (4° C., 10 minutes) came to 23%.
For `C=CCc1cc(C(=O)c2ccccc2)c(O)cc1OCCCCC#N` [Example 104, 5-(4-Benzoyl-5-hydroxy-2-allylphenoxy)pentanenitrile], in that order: 32% and 5%.
As to `CCc1cc(CC)c(OCCCCCC(C)(C)c2nnn[nH]2)cc1O` [Example 151, 2,4-Diethyl-5-{[6-methyl-6-(1H-tetrazol-5-yl)heptyl]oxy}phenol], the inhibition at 10 µM under setting [1] amounted to 105%. Besides, for the setting “4° C., 10 minutes”, the inhibition at 1 µM is 103% and the inhibition at 0.1 µM was 78%.
